Results: the NIST ThermoML archive (doi:10.1016/j.jct.2018.06.015)

Assay: xn = mol fraction of the nth substance listed
Settings: 100 kPa, Liquid; for mass density: Vibrating tube method; for speed of sound: Frequency=3 MHz, Single path-length method

CCCCOCCOCCO [3,6-dioxa-1-decanol] + CCCCCCO
Settings	mass density, 303.15 K [kg/m3]	mass density, 308.15 K [kg/m3]	mass density, 313.15 K [kg/m3]	speed of sound, 308.15 K [m/s]	speed of sound, 313.15 K [m/s]
x1 = 0.0612	822.781	819.109	815.428	1273.2	1256.6
x1 = 0.1016	829.539	825.839	822.126	1275.4	1259.1
x1 = 0.1593	838.928	835.192	831.439	1278.6	1262.3
x1 = 0.2053	846.155	842.384	838.617	1281.3	1265
x1 = 0.251	853.123	849.323	845.516	1283.8	1267.6
x1 = 0.3095	861.792	857.954	854.105	1287.1	1271.2
x1 = 0.4054	875.359	871.465	867.564	1292.4	1276.4
x1 = 0.5021	888.244	884.294	880.34	1297.7	1281.6
x1 = 0.6049	901.21	897.205	893.199	1303.3	1287.3
x1 = 0.6982	912.316	908.259	904.202	1308.4	1292.7
x1 = 0.801	923.754	919.65	915.548	1314.2	1298.2
x1 = 0.8313	926.99	922.874	918.76	1315.8	1299.6
x1 = 0.9042	934.516	930.365	926.213	1320.2	1304.8
x1 = 1	943.909	939.704	935.503	1326.4	1307.7
